Experimental data taken from ChEMBL document CHEMBL1131271, “Potent inhibitors of the MAP kinase p38” (Bioorg Med Chem Lett, 1998).

Target: MAP kinase p38 (Homo sapiens, UniProt O15264+Q15759+Q16539+P53778)
Assay: Inhibition of TNF-alpha production by lipopolysaccharide-stimulated human peripheral blood mononuclear cells
Format: functional

Nc1cc(OCc2ccccc2)c2c(-c3ccncc3)c(-c3ccc(F)cc3)[nH]c2n1
IC50: 0.91 nM

CCCCOc1cc(N)[nH]c2nc(-c3ccc(F)cc3)c(-c3ccncc3)c1-2
IC50: 4 nM

COc1cccc(COc2cc(N)[nH]c3nc(-c4ccc(F)cc4)c(-c4ccncc4)c2-3)c1
IC50: 1.5 nM

Nc1ccc2c(-c3ccncc3)c(-c3ccc(F)cc3)[nH]c2n1
IC50: 37 nM

Nc1cc(OCCCc2ccccc2)c2c(-c3ccncc3)c(-c3ccc(F)cc3)[nH]c2n1
IC50: 9 nM
